Source: PubChem BioAssay (NCI)
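Results reflect a 48-hour exposure of cells in 96-well plates to compound at five concentrations. TGI denotes the concentration required for complete inhibition of growth.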

Key:
Assay in all cases: NCI tumour cell line growth inhibition, 48 h
DU-145 prostate = test system: DU-145 prostate
COLO 205 colon = test system: COLO 205 colon
EKVX NSCLC = test system: EKVX NSCLC
MOLT-4 leukemia = test system: MOLT-4 leukemia
SNB-75 CNS = test system: SNB-75 CNS
MDA-N = test system: MDA-N
A498 renal = test system: A498 renal
SW-620 colon = test system: SW-620 colon
OVCAR-5 ovarian = test system: OVCAR-5 ovarian
SN12C renal = test system: SN12C renal
MALME-3M melanoma = test system: MALME-3M melanoma
NCI-H522 lung = test system: NCI-H522 lung
UACC-257 melanoma = test system: UACC-257 melanoma
UACC-62 melanoma = test system: UACC-62 melanoma
HOP-92 NSCLC = test system: HOP-92 NSCLC
HCC-2998 colon = test system: HCC-2998 colon
IGROV1 ovarian = test system: IGROV1 ovarian
SR leukemia = test system: SR leukemia

Structure (SMILES): CO/C(N)=C(\C#N)N=Cc1ccco1
- TGI (DU-145 prostate): > 100 µM
- TGI (COLO 205 colon): > 100 µM
- TGI (EKVX NSCLC): > 100 µM
- TGI (MOLT-4 leukemia): > 100 µM
- TGI (SNB-75 CNS): > 100 µM
- TGI (MDA-N): > 100 µM
- TGI (A498 renal): > 100 µM
- TGI (SW-620 colon): > 100 µM
- TGI (OVCAR-5 ovarian): > 100 µM
- TGI (SN12C renal): > 100 µM
- TGI (MALME-3M melanoma): > 100 µM
- TGI (NCI-H522 lung): > 100 µM
- TGI (UACC-257 melanoma): > 100 µM
- TGI (UACC-62 melanoma): > 100 µM
- TGI (HOP-92 NSCLC): > 100 µM
- TGI (HCC-2998 colon): > 100 µM
- TGI (IGROV1 ovarian): > 100 µM

Structure (SMILES): O=S(=O)(O)C1=C2Sc3ccccc3N=C2c2ccccc2C1
- TGI (COLO 205 colon): 30.3 µM
- TGI (EKVX NSCLC): 32 µM
- TGI (MOLT-4 leukemia): 29.1 µM
- TGI (SR leukemia): 20.6 µM
- TGI (SNB-75 CNS): 32.5 µM
- TGI (A498 renal): 32.8 µM
- TGI (SW-620 colon): 29.8 µM
- TGI (OVCAR-5 ovarian): 34.5 µM
- TGI (SN12C renal): 26.8 µM
- TGI (MALME-3M melanoma): 30 µM
- TGI (NCI-H522 lung): 31.3 µM
- TGI (UACC-257 melanoma): 31.4 µM
- TGI (UACC-62 melanoma): 26.4 µM
- TGI (HOP-92 NSCLC): 22 µM
- TGI (HCC-2998 colon): 31.4 µM
- TGI (IGROV1 ovarian): 28.1 µM

Structure (SMILES): CC1OC(OC2C(OC(=O)[C@]34CCC(C)(C)CC3C3=CCC5[C@@]6(C)C[C@H](O)[C@H](OC7OC(CO)C(O)C(O)C7N)[C@@](C)(C(=O)O)C6CC[C@@]5(C)C3(C)CC4)OCC(O)C2O)C(O)C(O)C1OC1OCC(O)C(O)C1O (stereo partly drawn)
- TGI (COLO 205 colon): > 100 µM
- TGI (EKVX NSCLC): > 100 µM
- TGI (MOLT-4 leukemia): > 100 µM
- TGI (SNB-75 CNS): > 100 µM
- TGI (A498 renal): > 100 µM
- TGI (SW-620 colon): > 100 µM
- TGI (OVCAR-5 ovarian): > 100 µM
- TGI (SN12C renal): > 100 µM
- TGI (MALME-3M melanoma): > 100 µM
- TGI (NCI-H522 lung): > 100 µM
- TGI (UACC-257 melanoma): > 100 µM
- TGI (UACC-62 melanoma): > 100 µM
- TGI (HOP-92 NSCLC): > 100 µM
- TGI (HCC-2998 colon): > 100 µM
- TGI (IGROV1 ovarian): > 100 µM

Structure (SMILES): OC1(c2ccccc2)C2CCN(CC2)C1CN1CCOCC1 (stereo not drawn)
- TGI (DU-145 prostate): > 100 µM
- TGI (COLO 205 colon): > 100 µM
- TGI (EKVX NSCLC): > 100 µM
- TGI (MOLT-4 leukemia): > 100 µM
- TGI (SR leukemia): > 100 µM
- TGI (SNB-75 CNS): > 100 µM
- TGI (A498 renal): > 100 µM
- TGI (SW-620 colon): > 100 µM
- TGI (OVCAR-5 ovarian): > 100 µM
- TGI (SN12C renal): > 100 µM
- TGI (MALME-3M melanoma): > 100 µM
- TGI (NCI-H522 lung): > 100 µM
- TGI (UACC-257 melanoma): > 100 µM
- TGI (UACC-62 melanoma): > 100 µM
- TGI (HCC-2998 colon): > 100 µM
- TGI (IGROV1 ovarian): > 100 µM

Structure (SMILES): C[N+](C)(C)CCCSc1nc2ccccc2[nH]1
- TGI (DU-145 prostate): > 100 µM
- TGI (COLO 205 colon): > 100 µM
- TGI (EKVX NSCLC): > 100 µM
- TGI (MOLT-4 leukemia): > 100 µM
- TGI (MDA-N): > 100 µM
- TGI (A498 renal): > 100 µM
- TGI (SW-620 colon): > 100 µM
- TGI (OVCAR-5 ovarian): > 100 µM
- TGI (SN12C renal): > 100 µM
- TGI (MALME-3M melanoma): > 100 µM
- TGI (NCI-H522 lung): > 100 µM
- TGI (UACC-257 melanoma): > 100 µM
- TGI (UACC-62 melanoma): > 100 µM
- TGI (HOP-92 NSCLC): > 100 µM
- TGI (HCC-2998 colon): > 100 µM
- TGI (IGROV1 ovarian): > 100 µM

Structure (SMILES): CCOC(=O)CCCNC(=O)CCCCC(=O)N(C)C
- TGI (DU-145 prostate): > 100 µM
- TGI (COLO 205 colon): > 100 µM
- TGI (EKVX NSCLC): > 100 µM
- TGI (MOLT-4 leukemia): > 100 µM
- TGI (MDA-N): > 100 µM
- TGI (A498 renal): > 100 µM
- TGI (SW-620 colon): > 100 µM
- TGI (OVCAR-5 ovarian): > 100 µM
- TGI (SN12C renal): > 100 µM
- TGI (MALME-3M melanoma): > 100 µM
- TGI (NCI-H522 lung): > 100 µM
- TGI (UACC-257 melanoma): > 100 µM
- TGI (UACC-62 melanoma): > 100 µM
- TGI (HOP-92 NSCLC): > 100 µM
- TGI (HCC-2998 colon): > 100 µM
- TGI (IGROV1 ovarian): > 100 µM

Structure (SMILES): COC(=O)c1cc(C)ccc1C1CN=NC12Cc1ccc(C)cc1C2=O (stereo not drawn)
- TGI (DU-145 prostate): > 100 µM
- TGI (COLO 205 colon): 29.3 µM
- TGI (EKVX NSCLC): > 100 µM
- TGI (MOLT-4 leukemia): 80.6 µM
- TGI (SNB-75 CNS): > 100 µM
- TGI (MDA-N): > 100 µM
- TGI (A498 renal): 91.3 µM
- TGI (SW-620 colon): > 100 µM
- TGI (OVCAR-5 ovarian): > 100 µM
- TGI (SN12C renal): > 100 µM
- TGI (MALME-3M melanoma): > 100 µM
- TGI (NCI-H522 lung): 98.9 µM
- TGI (UACC-257 melanoma): > 100 µM
- TGI (UACC-62 melanoma): > 100 µM
- TGI (HOP-92 NSCLC): 66.5 µM
- TGI (HCC-2998 colon): > 100 µM
- TGI (IGROV1 ovarian): > 100 µM
